# Like-named read-outs stand apart in the source and are kept apart here.
# Legend:
# mouse V79 cells = conditions: Mitchell et al., 2000; cited from earlier work
# lens endothelial cells = conditions: in vitro; Sasaki et al., 1998; cited from earlier work
# [1] = system: selenite induced cataract; conditions: mice; cited from earlier work
# [2] = system: H2O2-induced angiogenesis in the CAM model; experiment: H2O2-induced angiogenesis in the chick chorioallantoic membrane (CAM) model; format: in vivo; conditions: for inhibition at 88 µM: Gallus gallus
# Description: Neovascularization was examined by previously described methods (see references at the end of Example 5). Ten-day-old fertilized chicken eggs were incubated at 37° C. with 55% relative humidity. In the dark with the help of candling lamp and using a hypodermic needle a small hole was punctured in the shell covering the air sac. A second hole was punctured on the wider side of the egg above an avascular area of the embryonic membrane. An artificial air sac was created below the second hole by applying gentle vacuum to the first hole using a small rubber squeeze bulb. The vacuum caused the separation of chorioallantoic membrane (CAM) from the shell. An approximately 1.0 cm^2 widow was cut in the shell over the dropped CAM with the use of a mini drill. The underlying CAM was accessed through this small window.
# Filter disks were punched using a small puncher from filter paper #1 (Whatman International, United Kingdom). Filter disks were soaked in 3 mg/ml cortisone acetate solution (95% ethanol and water) and air-dried under sterile condition. For inducing angiogenesis, sterile filter disks were saturated with bFGF (1 μg/ml) or other pro-angiogenesis factors and control disks were saturated with PBS without Calcium and Magnesium.
# Using sterile forceps one filter/CAM was placed from the window. The window was sealed with Highland brand transparent tape. After 24 hr, 10-25 µl of test agent (inhibitor) was injected intravenously or added topically into the CAM membrane of bFGF or other pro-angiogenesis factors stimulated CAMs. • Control filter disks received PBS without Calcium and Magnesium. • After 48 hr, CAM tissue directly beneath filter disk was harvested and placed in a 35-mm Petri dish. Eight-Ten eggs/treatment group was used.
# A pro-angiogenic agent (see Examples, below) was added to induce new blood vessel branches on the CAM of 10-day old embryos. Sterile disks of #1 filter paper (Whatman International, United Kingdom) were pre-treated with 3 mg/ml cortisone acetate, and air dried under sterile conditions. The disks were then suspended in PBS (Phosphate Buffered Saline) and placed on growing CAMs. Filters treated with TPH (TEMPOL-H) or TEMPOL and/or H2O2 or TPH and/or bFGF or VEGF were placed on the first day of the 3-day incubation.
# Digital Images and Microscopic analysis of CAM sections: CAM sections from Petri dish were examined using SV6 stereomicroscope (Karl Zeiss) at 50× magnification. Digital images were captured using a 3-CCD color video camera system (Toshiba America, New York, N.Y.). These images were analyzed using Image-Pro Plus software (Media Cybernetics). The number of branch points in blood vessels within the circular region superimposed to the area of a filter disk was counted for each section. After incubation at 37° C. with 55% relative humidity for 3 days, the CAM tissue directly beneath each filter disk was resected from control and treated CAM samples. Tissues were washed three times with PBS. Sections were placed in a 35-mm Petri dish (Nalge Nunc; Rochester, N.Y.) and were examined under a SV6 stereomicroscope (Karl Zeiss; Thornwood, N.Y.) at 50× magnification. Digital images of CAM sections adjacent to filters were collected using a 3-CCD color video camera system (Toshiba America; New York, N.Y.) and analyzed with the Image-Pro Plus software (Media Cybernetics; Silver Spring, Md.). The number of vessel branch points contained in a circular region equal to the area of a filter disk was counted for each section. Percent inhibition data are expressed as the quotient of the experimental value minus the negative control value divided by the difference between the positive control value and the negative control value. One image was counted in each CAM preparation, and findings from eight CAM preparations were analyzed for each treatment condition. In addition, each experiment was performed three times. […]
structure (smiles),measurement,setting,value
"CC1(C)CC(O)CC(C)(C)N1[O] [TEMPOL, 4-hydroxy-2,2,6,6-tetramethylpiperidine-N-oxyl radical, reference compound]",radioprotection of mouse V79 cells,mouse V79 cells,concentration dependent
same,prevention of X-ray radiation damage to lens endothelial cells,lens endothelial cells,prevented X-ray radiation damage
same,prevention of selenite induced cataract,[1],not effective
same,inhibition of angiogenesis induced by super-maximal concentrations of H2O2,"[2]; CAM model, Tables 1A and 1B",effectively inhibited
same,inhibition at 88 µM,"[2]; read-out: % Inhibition ± SD, H2O2 (88 μM, 30 ng) + 100 μg test agent",32.1 ± 14.1%
same,inhibition at 88 µM,"[2]; read-out: % Inhibition ± SD, H2O2 (88 μM, 30 ng) + 200 μg test agent",32.5 ± 12.1%
same,inhibition at 88 µM,"[2]; read-out: % Inhibition ± SD, H2O2 (88 μM, 30 ng) + 400 μg test agent",30.1 ± 8.7%
same,inhibition at 88 µM,"[2]; read-out: % Inhibition ± SD, H2O2 (88 μM, 30 ng) + 800 μg test agent",60.9 ± 3.2%

# From patent publication US20070197599A1, “HYDROXYLAMINES AND DERIVATIVES AS ANTI-ANGIOGENIC AGENTS” (priority 2006, published 2007)
